What is called melting point is the temperature, or range, at which the solid turns liquid.

Molecules are shown by their SMILES. Counter-ions that a name gives are not always drawn.

19 compounds from patent US6936622B2, “6-phenylbenzonaphthyridines” (Altana Pharma AG, priority 2001, dated 2005) can be followed below.

In data set [1] the target is PDE4 (cAMP-specific). The data set can be described thus: Inhibition of PDE isoenzymes: PDE4. The data set is classed as biochemical. The conditions noted are these: cytosol of human polymorphonuclear leukocytes (PMNL), cAMP as substrate, motapizone 1 μM. The method, then:
(§1) 1. Inhibition of PDE Isoenzymes
(§2) The PDE activity was determined according to Thompson et al. (Adv Cycl Nucl Res 10: 69-92, 1979) with some modifications (Bauer and Schwabe, Naunyn-Schmiedeberg's Arch Pharmacol 311: 193198, 1980). The test samples contained 20 mM Tris (pH 7.4), 5 mM MgCl2, 0.5 μM cAMP or cGMP, [^3H]cAMP or [^3H]cGMP (about 30 000 cpm/sample), the PDE isoenzyme-specific additives described in greater detail below, the indicated concentrations of inhibitor and an aliquot of the enzyme solution in a total sample volume of 200 μl. Dilution series of the compounds according to the invention were prepared in DMSO and further diluted in the samples [1:100 (v/v)], to give the desired end concentration of the inhibitors at a DMSO concentration of 1% (v/v), which for its part has only a minute effect on PDE activity.
(§3) After preincubation at 37° C. for 5 minutes, the reaction was started by addition of the substrate (cAMP or cGMP). The samples were incubated at 37° C. for a further 15 min. The reaction was terminated by addition of 50 μl 0.2 N HCl. After cooling on ice for 10 minutes and addition of 25 μg 5′-nucleotidase (snake venom from Crotalus atrox), the mixture was again incubated at 37° C. for 10 min and the samples were then applied to QAE Sephadex A-25 columns (sample volume 1 ml). The columns were eluted with 2 ml of 30 mM ammonium formate (pH 6.0). The radioactivity of the eluate was measured and corrected by the corresponding blank values (measured in the presence of denatured protein); the blank values were less than 5% of the total radioactivity. In no case did the proportion of hydrolyzed nucleotide exceed 30% of the original substrate concentration.
PDE4 (cAMP-specific) was investigated in the cytosol of human polymorphonuclear leukocytes (PMNL) [isolated from leukocyte concentrates, see Schudt et al., Arch Pharmacol 1991: 344, 682-690] using cAMP as substrate. The PDE3 inhibitor motapizone (1 μM) was used to suppress the PDE3 activity emanating from contaminated platelets.
(§4) The IC50 values were determined from the concentration-inhibition curves by nonlinear regression.

The target of data set [2] is T1, PDE3 (cGMP-inhibited) (Homo sapiens, UniProt Q14432).
T1 construct: investigated in homogenates of human platelets; from tissue; host or cells: homogenates of human platelets
T1 sequence (Q14432 whole entry): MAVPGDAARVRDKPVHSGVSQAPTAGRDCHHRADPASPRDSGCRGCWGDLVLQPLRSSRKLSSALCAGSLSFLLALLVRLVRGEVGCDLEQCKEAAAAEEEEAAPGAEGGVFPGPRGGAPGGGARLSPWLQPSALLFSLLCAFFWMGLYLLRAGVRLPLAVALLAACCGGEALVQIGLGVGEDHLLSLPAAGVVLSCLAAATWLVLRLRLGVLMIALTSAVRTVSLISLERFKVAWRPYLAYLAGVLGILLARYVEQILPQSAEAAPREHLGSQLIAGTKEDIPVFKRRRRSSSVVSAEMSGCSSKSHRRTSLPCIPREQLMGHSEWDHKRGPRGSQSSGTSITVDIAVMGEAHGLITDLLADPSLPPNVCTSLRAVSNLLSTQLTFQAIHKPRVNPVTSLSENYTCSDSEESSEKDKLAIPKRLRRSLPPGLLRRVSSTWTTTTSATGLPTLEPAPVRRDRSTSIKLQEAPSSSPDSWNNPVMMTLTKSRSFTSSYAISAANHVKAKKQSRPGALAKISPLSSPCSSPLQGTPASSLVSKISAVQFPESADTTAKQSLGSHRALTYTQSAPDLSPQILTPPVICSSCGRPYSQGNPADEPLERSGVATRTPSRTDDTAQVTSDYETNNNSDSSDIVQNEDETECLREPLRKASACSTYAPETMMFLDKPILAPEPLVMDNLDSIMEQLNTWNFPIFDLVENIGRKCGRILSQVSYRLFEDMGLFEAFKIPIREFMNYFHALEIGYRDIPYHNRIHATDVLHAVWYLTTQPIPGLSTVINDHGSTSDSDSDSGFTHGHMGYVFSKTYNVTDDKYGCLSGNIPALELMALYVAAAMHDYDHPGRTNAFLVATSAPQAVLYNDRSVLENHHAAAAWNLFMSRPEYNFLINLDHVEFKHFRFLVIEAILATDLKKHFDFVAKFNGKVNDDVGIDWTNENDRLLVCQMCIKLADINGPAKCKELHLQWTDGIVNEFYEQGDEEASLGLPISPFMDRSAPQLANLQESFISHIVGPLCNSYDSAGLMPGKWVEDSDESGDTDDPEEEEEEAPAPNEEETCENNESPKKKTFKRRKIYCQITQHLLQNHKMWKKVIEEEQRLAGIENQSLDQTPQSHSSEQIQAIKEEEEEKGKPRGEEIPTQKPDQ
The data set can be described thus: Inhibition of PDE isoenzymes: PDE3. The data set is classed as biochemical. The conditions noted are these: homogenates of human platelets, cAMP or cGMP as substrate; read-out: PDE3 [-log IC50, mol/l] (converted). The method, then: as §1, §2, §3
PDE3 (cGMP-inhibited) was investigated in homogenates of human platelets (see Schudt et al., Biochem Pharmacol 1991: 42, 153-162) using cAMP or cGMP as substrate.
as §4

The compound `COc1cc2c(cc1OC)[C@@H]1CN(C)CC[C@@H]1N=C2c1ccc(C(=O)N=C(N(C)C)N(C)C)cc1.Cl` yielded a melting point of 161 to 166 °C.

In turn, `CCOc1cc2c(cc1OC)C(c1ccc(C(=O)NC(=N)N3CCOCC3)cc1)=NC1CCN(C)CC21` (stereo not drawn) (as salt: hydrochloride) [Compound 1, 4-[(+)-cis-9-Ethoxy-8-methoxy-2-methyl-1,2,3,4,4a,10b-hexahydro[c][1,6]naphthyridin-yl)-N-(1-imino-1-morpholin-4-ylmethyl)]benzamide dihydrochloride] gave a melting point of 208 to 218 °C.

Turning to `CCOc1cc2c(cc1OC)C(c1ccc(C(=O)NC(=N)N(CC)CC)cc1)=NC1CCN(C)CC21` (stereo not drawn) (as salt: hydrochloride) [Compound 2, N′-{1-[4-((+)-cis-9-Ethoxy-8-methoxy-2-methyl-1,2,3,4,4a,10b-hexahydro[c][1,6]naphthyridin-6-yl)phenyl]methanoyl}-N,N-diethylguanidine dihydrochloride], the melting point lay within 194 to 203 °C.

Regarding `CCOc1cc2c(cc1OC)C(c1ccc(C(=O)NC(=N)N(C)C)cc1)=NC1CCN(C)CC21` (stereo not drawn) (as salt: hydrochloride) [Compound 3, N′{1-[4-((+)-cis-9-Ethoxy-8-methoxy-2-methyl-1,2,3,4,4a,10b-hexahydro[c][1,6[-naphthyridin-6-yl)phenyl]methanoyl}-N,N-dimethylguanidinedihydrochloride], the melting point lay in the range of 134 to 141 °C.

For `CCOc1cc2c(cc1OC)C(c1ccc(C(=O)NC(=N)N)cc1)=N[C@H]1CCN(C)C[C@@H]21` (relative stereo) [Compound 7, N-{1-[4-((−)-cis-9-Ethoxy-8-methoxy-2-methyl-1,2,3,4,4a,10b-hexahydro-benzo[c]-[1,6]naphthyridin-6-yl)-phenyl]-methanoyl}guanidine], the “PDE4 [-log IC50, mol/l]” value in data set [1] is recorded as 8.83. In data set [2], the IC50 was 195 nM.

Consider `CCOc1cc2c(cc1OC)C(c1ccc(C(=O)NC(=N)NC)cc1)=N[C@H]1CCN(C)C[C@@H]21` (relative stereo) [Compound 14, N-{1-[4-((−)-cis-9-Ethoxy-8-methoxy-2-methyl-1,2,3,4,4a,10b-hexahydro-benzo[c][1,6]naphthyridin-6-yl)-phenyl]-methanoyl}-N′-methyl-guanidine], for which the “PDE4 [-log IC50, mol/l]” value in data set [1] is listed as 8.82. Further, the IC50 in data set [2] was 309 nM.

`CCOc1cc2c(cc1OC)C(c1ccc(C(=O)NC(=N)NC(C)C)cc1)=N[C@H]1CCN(C)C[C@@H]21` (relative stereo) [Compound 15, N-{1-[4-((−)-cis-9-Ethoxy-8-methoxy-2-methyl-1,2,3,4,4a,10b-hexahydro-benzo[c][1,6]naphthyridin-6-yl)-phenyl]-methanoyl}-N′-isopropyl-guanidine]: the “PDE4 [-log IC50, mol/l]” value in data set [1] came to 9.11. Besides, the IC50 in data set [2] is 155 nM.

Regarding `CCCNC(=N)NC(=O)c1ccc(C2=N[C@H]3CCN(C)C[C@H]3c3cc(OCC)c(OC)cc32)cc1` (relative stereo) [Compound 16, N-{1-[4-((−)-cis-9-Ethoxy-8-methoxy-2-methyl-1,2,3,4,4a,10b-hexahydro-benzo[c][1,6]naphthyridin-6-yl)-phenyl]-methanoyl}-N′-propyl-guanidine], in data set [1], the “PDE4 [-log IC50, mol/l]” value is 9.65. Moreover, the IC50 in data set [2] is 166 nM.

Take `CCOc1cc2c(cc1OC)C(c1ccc(C(=O)NC(=N)NCC(C)C)cc1)=N[C@H]1CCN(C)C[C@@H]21` (relative stereo) [Compound 17, N-{1-[4-((−)-cis-9-Ethoxy8-methoxy-2-methyl-1,2,3,4,4a,10b-hexahydro-benzo[c][1,6]naphthyridin-6-yl)-phenyl]-methanoyl}-N′-isobutyl-guanidine]: in data set [1], the “PDE4 [-log IC50, mol/l]” value is recorded as 9.34. Besides, in data set [2], the IC50 is 123 nM.

As for `CCNC(=N)NC(=O)c1ccc(C2=N[C@H]3CCN(C)C[C@H]3c3cc(OCC)c(OC)cc32)cc1` (relative stereo) [Compound 18, N-{1-[4-((−)-cis-9-Ethoxy-8-methoxy-2-methyl-1,2,3,4,4a,10b-hexahydro-benzo[c][1,6]naphthyridin-6-yl)-phenyl]-methanoyl}-N′-ethyl-guanidine], the “PDE4 [-log IC50, mol/l]” value in data set [1] worked out at 8.76. The IC50 in data set [2] is 245 nM.

In the case of `CCOc1cc2c(cc1OC)C(c1ccc(C(=O)NC(=N)NC3CCCCC3)cc1)=N[C@H]1CCN(C)C[C@@H]21` (relative stereo) [Compound 19, N-Cyclohexyl-N′-{1-[4-((−)-cis-9-ethoxy-8-methoxy-2-methyl-1,2,3,4,4a,10b-hexahydro-benzo [c][1,6]naphthyridin-6-yl)-phenyl]-methanoyl}-guanidine], the “PDE4 [-log IC50, mol/l]” value in data set [1] turned out to be 9.50. In addition, in data set [2], the IC50 is 132 nM.

In the case of `CCOc1cc2c(cc1OC)C(c1ccc(C(=O)NC(=N)NCC3CCCCC3)cc1)=N[C@H]1CCN(C)C[C@@H]21` (relative stereo) [Compound 20, N-Cyclohexylmethyl-N′-{1-[4-((−)-cis-9-ethoxy-8-methoxy-2-methyl-1,2,3,4,4a,10b-hexahydro-benzo[c][1,6]naphthyridin-6-yl)-phenyl]-methanoyl}-guanidine], in data set [1], the “PDE4 [-log IC50, mol/l]” value came out at 9.65. Further, the IC50 in data set [2] was 97.7 nM.

With `CCCCNC(=N)NC(=O)c1ccc(C2=N[C@H]3CCN(C)C[C@H]3c3cc(OCC)c(OC)cc32)cc1` (relative stereo) [Compound 21, N-Butyl-N′-{1-[4-((−)-cis-9-ethoxy-8-methoxy-2-methyl-1,2,3,4,4a,10b-hexahydro-benzo[c][1,6]naphthyridin-6-yl)-phenyl]-methanoyl}-guanidine], the “PDE4 [-log IC50, mol/l]” value in data set [1] turned out to be 9.49. Moreover, the IC50 in data set [2] was 129 nM.

With `CCOc1cc2c(cc1OC)C(c1ccc(C(=O)N=C(N(C)C)N(C)C)cc1)=NC1CCN(C)CC21` (single isomer, unassigned) [Compound 5, N″{1-[4-((−)-cis-9-Ethoxy-8-methoxy-2-methyl-1,2,3,4,4a,10b-hexahydro[c][1.6]naphthyridin-6-yl)phenyl]methanoyl}-N,N,N′,N′-tetramethylguanidine hydrochloride], the “PDE4 [-log IC50, mol/l]” value in data set [1] was determined as 9.01. Moreover, the IC50 in data set [2] was 129 nM.

Regarding `CCOc1cc2c(cc1OC)C(c1ccc(C(=O)NC(=N)N3CCOCC3)cc1)=NC1CCN(C)CC21` (stereo not drawn) [Compound 1, 4-[(+)-cis-9-Ethoxy-8-methoxy-2-methyl-1,2,3,4,4a,10b-hexahydro[c][1,6]naphthyridin-yl)-N-(1-imino-1-morpholin-4-ylmethyl)]benzamide dihydrochloride], the “PDE4 [-log IC50, mol/l]” value in data set [1] worked out at 9.22. The IC50 in data set [2] was 135 nM.

`CCOc1cc2c(cc1OC)C(c1ccc(C(=O)NC(=N)N(CC)CC)cc1)=NC1CCN(C)CC21` (stereo not drawn) [Compound 2, N′-{1-[4-((+)-cis-9-Ethoxy-8-methoxy-2-methyl-1,2,3,4,4a,10b-hexahydro[c][1,6]naphthyridin-6-yl)phenyl]methanoyl}-N,N-diethylguanidine dihydrochloride]: the “PDE4 [-log IC50, mol/l]” value in data set [1] is listed as 9.77. Further, in data set [2], the IC50 is 42.7 nM.

Regarding `CCOc1cc2c(cc1OC)C(c1ccc(C(=O)NC(=N)N(C)C)cc1)=NC1CCN(C)CC21` (stereo not drawn) [Compound 3, N′{1-[4-((+)-cis-9-Ethoxy-8-methoxy-2-methyl-1,2,3,4,4a,10b-hexahydro[c][1,6[-naphthyridin-6-yl)phenyl]methanoyl}-N,N-dimethylguanidinedihydrochloride], the “PDE4 [-log IC50, mol/l]” value in data set [1] is on record as 9.39. For the same compound, the IC50 in data set [2] was 87.1 nM.

For `CCOc1cc2c(cc1OC)C(c1ccc(C(=O)NC(=N)N(C)CCO)cc1)=NC1CCN(C)CC21` (stereo not drawn) [Compound 4, N′-{1-[4-((+)-cis-9-Ethoxy-8-methoxy-2-methyl-1,2,3,4,4a,10b-hexahydro[c][1,6]naphthyridin-6-yl)phenyl]methanoyl}-N-(2-hydroxyethyl)-N-methylguanidine dihydrochloride], the “PDE4 [-log IC50, mol/l]” value in data set [1] is reported as 8.34. In data set [2], the IC50 was 1150 nM.

For the compound `CCOc1cc2c(cc1OC)C(c1ccc(C(=O)N=C(N)N3CCN(C)CC3)cc1)=NC1CCN(C)CC21` (stereo not drawn) [Compound 6, N-[1-Amino-1-(4-methylpiperazin-1-yl)methylene]-4-((+)-cis-9-ethoxy-8-methoxy-2-methyl-1,2,3,4,4a,10b-hexahydro[c][1,6]naphthyridin-6-yl)benzamide dihydrochloride], the “PDE4 [-log IC50, mol/l]” value in data set [1] was found to be 9.13. Also, the IC50 in data set [2] is 363 nM.
